Measurements from publication PMC7497240 (Chembiochem, 2020).

Biological target: T1, ABCG2 (Homo sapiens, UniProt Q9UNQ0)
T1 sequence (Q9UNQ0 1-655): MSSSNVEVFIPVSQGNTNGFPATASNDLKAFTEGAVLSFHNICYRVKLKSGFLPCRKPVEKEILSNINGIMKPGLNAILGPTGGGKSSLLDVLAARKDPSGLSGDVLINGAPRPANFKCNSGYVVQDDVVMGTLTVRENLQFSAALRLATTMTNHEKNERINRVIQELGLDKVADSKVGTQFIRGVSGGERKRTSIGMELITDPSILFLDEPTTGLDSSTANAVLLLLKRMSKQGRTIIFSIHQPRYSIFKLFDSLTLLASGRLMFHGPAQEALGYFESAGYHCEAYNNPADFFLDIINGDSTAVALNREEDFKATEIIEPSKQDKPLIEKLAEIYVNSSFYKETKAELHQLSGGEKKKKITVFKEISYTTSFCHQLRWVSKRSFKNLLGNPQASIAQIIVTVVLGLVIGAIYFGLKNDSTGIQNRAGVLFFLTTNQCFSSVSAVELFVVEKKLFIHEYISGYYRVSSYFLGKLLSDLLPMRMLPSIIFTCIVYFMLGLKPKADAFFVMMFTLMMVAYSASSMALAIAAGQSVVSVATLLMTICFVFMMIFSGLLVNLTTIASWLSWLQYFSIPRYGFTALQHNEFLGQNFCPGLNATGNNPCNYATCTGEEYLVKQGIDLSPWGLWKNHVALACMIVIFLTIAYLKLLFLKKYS
Assay: Hoechst […] accumulation assay in ABCG2-transfected MDCK II BCRP cells
Format: cell-based

`O=C1NC(=O)c2c1c1c3ccccc3[nH]c1c1[nH]c3ccccc3c21` [compound 8, arcyriaflavin A] showed an IC50 of 9 µM.
